Experiments:
[1] = system: chorion of zebrafish eggs; experiment: Uptake of fluorescein-dextran by zebrafish eggs incubated with guanidine-containing compounds (chorion permeability); assay type: in vivo; settings: 40 mM compound, 1 μM of 10, 20 or 40 KD fluorescein-dextran, 24 hours, versus untreated eggs
Method: Zebrafish eggs were incubated in solutions that contained 1 μM of 10, 20 or 40 KD fluorescein-dextran with either 0 or 40 mM of arginine, guanidine-HCl or guanidine-thiocyanate for 24 hours.
40 zebrafish eggs were transferred into each well of 48-well plates that contained 300 μl of fresh tank system water. After the allocation of eggs, system water in each well was replaced with 300 μl of water that contained 0 or 40 μM of poly-arginine (9-arginine polymer) and 1 μM of 10 KD fluorescein-dextran. After 4 hours of incubation the eggs were examined using a MZ12 stereomicroscope (Leica, Buffalo Grove, USA), or an Axioplan 2 fluorescence microscope (ZEISS, Thornwood, N.Y., USA). Both microscopes were equipped with a DP70 digital camera (Olympus, Center Valley, Pa., USA).

Atlantic salmon eggs = experiment: Induction of sterility in Atlantic salmon by immersion of eggs in salmonids' dnd-MO or dnd-MO-Vivo; settings: 10-month-old fish
Method: A salmonids' dnd-MO (see Example 5) or a dendrimeric octaguanidine with a triazine core also known as Vivo, which was conjugated to salmonids' dnd-MO, resulting in salmonids' dnd-MO-Vivo, was used to induce sterility in Atlantic salmon and was tested by administering the following: • I: Salmonids' dnd-MO-Vivo 10 μM for 48 hours, administration to fertilized eggs at the beginning of water activation (within 1 minute). • II: Salmonids' dnd-MO-Vivo 10 μM for 48 hours, administration to unfertilized eggs with the immersion medium of the ovarian fluid. The eggs were fertilized after 48 hours of incubation. • III: Salmonids' dnd-MO-Vivo 10 μM for 48 hours, administration to unfertilized eggs with the immersion medium that contains salt, Tris (pH 8.0), Glycine, and 5% of fish serum. The fertilization was conducted after 48 hours of incubation. • IV: Salmonids' dnd-MO 20 μM for 48 hours, administration to unfertilized eggs with the immersion medium of the ovarian fluid. The eggs were fertilized after 48 hours of incubation. • V: Salmonids' dnd-MO 20 μM for 48 hours, administration to unfertilized eggs with the immersion medium that contains salt, Tris (pH 8.0), Glycine, and 5% of fish serum. The eggs were fertilized after 48 hours of incubation. • VI: Water or immersion medium only without neither salmonids' dnd-MO-Vivo nor dnd-MO as controls.

[2] = system: rainbow trout embryos / unfertilized eggs; experiment: Induction of sterility in rainbow trout by immersion of eggs in salmonids' dnd-MO-Vivo; settings: 10 μM for 48 hours
Method: A dendrimeric octaguanidine with a triazine core also known as Vivo, was conjugated to salmonids' dnd-MO, 5′-[…]-3′ (SEQ ID NO. 3) and used in an immersion containing rainbow trout embryos in water, or unfertilized eggs in ovarian fluid or fertilization diluent. The ability of methods disclosed herein to induce sterility in rainbow trout was tested by administering the following:
I: Salmonids' dnd-MO-Vivo 10 μM for 48 hours, administration to fertilized eggs at the beginning of water activation (within 1 minute)
II: Salmonids' dnd-MO-Vivo 10 μM for 48 hours, administration to unfertilized eggs with the immersion medium of the ovarian fluid. The fertilization was conducted after 48 hours of incubation.
III: Salmonids' dnd-MO-Vivo 10 μM for 48 hours, administration to unfertilized eggs with the fertilization diluent that contains salt, Tris (pH 8.0), Glycine, and 5% of fish serum. The fertilization was conducted after 48 hours of incubation.
IV: Water or immersion medium only without salmonids' dnd-MO-Vivo as controls.

**Q.** N#CS.N=C(N)N [guanidine-thiocyanate] was tested. Which “uptake of fluorescein-dextran in the eggs (green fluorescence)” value (“uptake of fluorescein-dextran” below) [1] did it give?
**A.** enhanced the uptake of fluorescein-dextran

**Q.** For N=C(N)NCCC[C@H](N)C(=O)O [arginine], which “uptake of fluorescein-dextran” value [1] is on record?
**A.** enhanced the uptake of fluorescein-dextran

**Q.** For Cl.N=C(N)N [guanidine-HCl], which “uptake of fluorescein-dextran” value [1] is on record?
**A.** enhanced the uptake of fluorescein-dextran

**Q.** How did the gonad morphology (Atlantic salmon eggs; dnd-MO 20 μM for 48 hours, treatments IV, V (unfertilized eggs in ovarian fluid or immersion medium)) turn out when “salmonids' dnd-MO: antisense Morpholino oligomer against salmonid dead end, 5′-CTGACTTGAACGCTCCTCCATTATC-3′ (SEQ ID NO. 3) (all phosphorodiamidate morpholino (PMO))” was run?
**A.** developed into a thin filament-like tissue

**Q.** And the “gonadal development in Atlantic salmon” value (Atlantic salmon eggs; dnd-MO 20 μM for 48 hours, unfertilized eggs)?
**A.** blocked gonadal development

**Q.** “salmonids' dnd-MO-Vivo: Vivo (dendrimeric octaguanidine with a triazine core) conjugated to salmonids' dnd-MO, 5′-CTGACTTGAACGCTCCTCCATTATC-3′ (SEQ ID NO. 3) (all phosphorodiamidate morpholino (PMO); Vivo octaguanidine dendrimer conjugated, attachment position not given here)” was tested. Which “gonadal development in Atlantic salmon” value (Atlantic salmon eggs; dnd-MO-Vivo 10 μM for 48 hours) did it give?
**A.** blocked gonadal development

**Q.** What about the gonad morphology (Atlantic salmon eggs; dnd-MO-Vivo 10 μM for 48 hours, treatments I, II, III) of the same molecule?
**A.** developed into a thin filament-like tissue

**Q.** What about the “infertility in rainbow trout” value [2] of the same molecule?
**A.** induced infertility

**Q.** And the “histological examination of gonadal tissue” value ([2]; treatments I, II and III)?
**A.** under-developed without advanced gonadal structure or germ cells

**Q.** And the gonad morphology ([2]; treatments I, II and III (fertilized eggs at water activation; unfertilized eggs in ovarian fluid or fertilization diluent))?
**A.** developed into a thin filament-like tissue

From patent US10709119B2, “Methods of agent delivery into eggs and embryos of egg-producing aquatic animals for drug screening, agent toxicity assay and production of infertile fish” (University of Maryland Baltimore County, priority 2015, dated 2020)
